The results in this text go back to US6825308B1, “Copolymers and preparation thereof” (Council of Scientific and Industrial Research, priority 2003, dated 2004).

The assay concerns the target lysozyme (Gallus gallus, UniProt P00698). Nature of the assay: Relative inhibition of lysozyme, Micrococcus lysodeikticus as substrate (Neuberger and Wilson). In kind it is biochemical. The following applies: pH 6.2, 20° C. How it is done: This example describes the estimation of inhibition of lysozyme by copolymers.
Micrococcus lysodeikticus is a substrate for the enzyme lysozyme. Relative binding of copolymers was estimated by using a procedure reported by Neuberger and Wilson (1967).
1.5% w/v stock solutions of copolymer was prepared in 0.0066 M phosphate buffer pH 6.2 containing 0.0154 m sodium chloride and 0.008 M sodium azide. One milliliter of stock solution containing different copolymer concentration was mixed with 1.6 ml of 78 μg/ml of Micrococcus lysodeikticus in a 3-ml capacity glass cuvette. The mixture was incubated for 5 minutes at 20° C. To this mixture 0.1 ml of lysozyme (27 μg/ml) was added and mixed thoroughly. The relative absorbance at 450 nm (Δ450) was recorded for 30 seconds. A blank reading without the copolymer was noted and the change in the absorbance per second was calculated. Then relative inhibition was calculated.

Sequence of lysozyme (P00698 19-147): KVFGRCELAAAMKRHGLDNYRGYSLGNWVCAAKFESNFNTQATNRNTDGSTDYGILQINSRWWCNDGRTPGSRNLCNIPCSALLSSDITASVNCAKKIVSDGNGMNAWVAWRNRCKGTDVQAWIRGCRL

On to `CC(=O)N[C@H]1C(O)O[C@H](CO)[C@@H](O)[C@@H]1O` (some centres unmarked) [NAG, N-Acetyl Glucosamine], for which the “Imax” value is, setting by setting: (concentration at Imax) 92.5 mM; (maximum relative inhibition of lysozyme) 55.29.
